The record followed here is ChEMBL document CHEMBL5244267, “A brief overview on recent advances in spiro[chromane-2,4'-piperidine]-4(3H)-one-functionalized compounds in medicinal chemistry research” (Bioorg Med Chem, 2020).

In brackets after ≈: the same amount, converted by molar mass.

Series [1] is described as follows: Antioxidant activity assessed as DPPH free radical scavenging activity at 500 microg/ml. It counts as functional.
For a further series, the target named is Carbonic anhydrase 9 (Homo sapiens, UniProt Q16790). Briefly: Binding affinity to human CA9 assessed as inhibition constant.
Series [2] can be described thus: AUC (0 to infinity) in CD1 mouse at 10 mg/kg, iv administered as single dose by UPLC analysis. The following applies: in vivo. Also noted: dose 10 mg/kg, route iv. It counts as ADME, organism-based.
Series [3] is described as follows: Half life in CD1 mouse at 3 mg/kg, iv. It is filed as ADME, organism-based. The following applies: in vivo.
A short description of series [4]: Clearance in CD-1 mouse at 10 mg/kg iv measured by UPLC-MS/MS method. It counts as ADME, organism-based. The following applies: in vivo.
The nature of series [5]: Volume of distribution in CD-1 mouse at 10 mg/kg iv measured by UPLC-MS/MS method. It counts as ADME, organism-based. The note with it: in vivo.
Series [6] is described as follows: Cmax in CD1 mouse at 0.5 mg/kg, iv. Also on record: dose 0.5 mg/kg, route iv. The following applies: in vivo. It counts as ADME, organism-based.
The nature of series [7]: AUC in CD1 mouse at 10 mg/kg, iv administered as single dose by UPLC analysis. It counts as ADME, organism-based. The note with it: in vivo. Also on record: dose 10 mg/kg, route iv.
A further series relates to MCF7. The series is described as follows: Anticancer activity against human MCF7 cells assessed as inhibition of cell proliferation measured after 48 hrs by MTT assay. It counts as functional, cell-based. The following applies: MCF7, 48 h. For orientation: Formazan colour is commonly taken as a measure of viable cells.
In the next series the test system is A2780. The series is described as follows: Anticancer activity against human A2780 cells assessed as inhibition of cell proliferation measured after 48 hrs by MTT assay. The following applies: A2780, 48 h. It counts as functional, cell-based.
A further series deals with HT-29. The series is described as follows: Anticancer activity against human HT-29 cells assessed as inhibition of cell proliferation measured after 48 hrs by MTT assay. It is filed as functional, cell-based. The following applies: HT-29, 48 h.
The nature of series [8]: Antioxidant activity assessed as DPPH radical scavenging activity at 100 uM/ml. It counts as functional.
Another series concerns Erythrocyte. The series is described as follows: Anti-inflammatory activity in human red blood cells assessed as protection of cell membrane at 100 ug/mL relative to control. It counts as functional. The following applies: dose 100 µg/ml.
A short description of series [9]: Antioxidant activity assessed as H2O2 radical scavenging activity. It counts as functional.
For the next series, the system named is Plasmodium falciparum. Briefly: Antiplasmodial activity against chloroquine-resistant Plasmodium falciparum Dd2 in HepG2 cells. It is filed as functional, organism-based.
Another series has as its system HepG2. The series is described as follows: Antiproliferative activity against human HepG2 cells assessed as reduction in cell viability after 24 hrs by MTT assay. It is filed as functional, cell-based. The following applies: HepG2, 24 h.
Series [10] in a line: Lipophilicity, logP of the compound. It is filed as physicochemical. The following applies: octanol/water.
Series [11] is described as follows: Aqueous solubility of the compound at pH 6.2. It counts as physicochemical. The following applies: buffer.
Series [12] is described as follows: Aqueous solubility of the compound at pH 5.0. It is filed as physicochemical. The following applies: buffer.
Series [13] has as its target Acetyl-CoA carboxylase 1 (Rattus norvegicus) (UniProt P11497). Briefly: In vivo inhibition of ACC1 in Sprague-Dawley rat assessed as reduction in malonyl-CoA in liver at […] relative to control. It is filed as functional.
The nature of series [14]: In vivo inhibition of ACC2 in Sprague-Dawley rat assessed as reduction in malonyl-CoA in quadriceps at […] relative to control. It is filed as functional.
Series [15] concerns the target Acetyl-CoA carboxylase 1 (Rattus norvegicus) (UniProt P11497). The series is described as follows: In vivo inhibition of ACC1 in Sprague-Dawley rat assessed as reduction in malonyl-CoA in liver. It counts as functional.
A short description of series [16]: In vivo inhibition of ACC2 in Sprague-Dawley rat assessed as reduction in malonyl-CoA in quadriceps. It counts as functional.

Consider `O=C1Nc2ccccc2/C1=C/C(=O)c1cc2c(cc1O)OC1(CCN(Cc3ccccc3)CC1)CC2=O`, for which, in series [1], the IC50 (as a rule, the midpoint of a concentration-inhibition curve) amounted to 8.12 µM.

Turning to `CCCOc1ccc2c(c1)C(=O)CC1(CCN(c3ccc(S(N)(=O)=O)cc3[N+](=O)[O-])CC1)O2`, the Ki (commonly the dissociation constant of the complex between target and ligand, obtained from inhibition or displacement) on Carbonic anhydrase 9 was found to be 1.24 µM.

Consider `COCCOc1ccc2c(c1)OC1(CCN(c3ccc(S(N)(=O)=O)cc3[N+](=O)[O-])CC1)CC2=O`, for which the Ki on Carbonic anhydrase 9 was 0.0454 µM.

`O=C(/C=C/c1ccc2c(c1)C(=O)CC1(CCN(CCc3ccccc3)CC1)O2)NO`: the exposure (AUC) – broadly, concentration integrated over time – was found to be 1.042 µg·h/mL in series [2] (mouse) and 1.6 µg·h/mL in series [7]. Besides, in [3], the half-life (in general, the time needed for the level to fall by half in the phase considered) was 9.1 h. The same molecule yielded a CL in series [4] (mouse, iv, 10 mg/kg) of 4.79 L/h/kg. Also, the Vd (commonly a proportionality between amount in the body and measured concentration, not a real space) in series [5] turned out to be 8.6 L/kg. Besides, the Cmax (commonly the peak of the concentration-time curve) in series [6] amounted to 2.49 µM.

Take `NS(=O)(=O)c1ccc(N2CCC3(CC2)CC(=O)c2cc(Br)ccc2O3)c([N+](=O)[O-])c1`: on Carbonic anhydrase 9, the Ki is 0.199 µM.

`O=C1Nc2ccc(Br)cc2/C1=C/C(=O)c1cc2c(cc1O)OC1(CCN(Cc3ccccc3)CC1)CC2=O`: in [1], the IC50 was 12.7 µM.

On to `CCOc1ccc2c(c1)OC1(CCN(c3ccc(S(N)(=O)=O)cc3[N+](=O)[O-])CC1)CC2=O`, for which the Ki on Carbonic anhydrase 9 worked out at 2.65 µM.

Take `NS(=O)(=O)c1ccc(N2CCC3(CC2)CC(=O)c2ccccc2O3)c([N+](=O)[O-])c1`: the inhibitory constant (Ki) on Carbonic anhydrase 9 turned out to be 0.229 µM.

As to `CC(=O)Oc1ccc2c(c1)C(=O)CC1(CCN(c3ccc(S(N)(=O)=O)cc3[N+](=O)[O-])CC1)O2`, at Carbonic anhydrase 9, the Ki amounted to 4.08 µM.

Take `CCOc1ccc2c(c1)C(=O)CC1(CCN(c3ccc(S(N)(=O)=O)cc3[N+](=O)[O-])CC1)O2`: the Ki on Carbonic anhydrase 9 turned out to be 2.84 µM.

With `NS(=O)(=O)c1ccc(N2CCC3(CC2)CC(=O)c2ccc(Br)cc2O3)c([N+](=O)[O-])c1`, at Carbonic anhydrase 9, the Ki stood at 1.47 µM.

On to `Cc1ccc(S(=O)(=O)N2CCC3(CC2)CC(=O)c2ccccc2O3)cc1`, for which the results for the IC50 in the series on MCF7, with A2780 and with HT-29 were 6.78 µM, 1.79 µM and 16 µM, respectively.

With `CCOC(=O)N1CCC2(CC1)CC(=O)c1cc(C(=O)/C=C3\C(=O)Nc4ccc(Br)cc43)c(O)cc1O2`, the 50% inhibitory concentration (IC50) in series [1] is 48.5 µM.

Regarding `CCCOc1ccc2c(c1)OC1(CCN(c3ccc(S(N)(=O)=O)cc3[N+](=O)[O-])CC1)CC2=O`, the Ki on Carbonic anhydrase 9 amounted to 4.15 µM.

For `CN1CCC2(CC1)CC(=O)c1c(ccc3c1CCC(C)(C)O3)O2`, the IC50 in series [8] (read-out: IC50) amounted to 6.59 µM. Further, the Activity in the series with Erythrocyte was determined as 64.72%.

On to `COCCOc1ccc2c(c1)C(=O)CC1(CCN(c3ccc(S(N)(=O)=O)cc3[N+](=O)[O-])CC1)O2`, for which the Ki at Carbonic anhydrase 9 is 4.34 µM.

As to `COc1cc(C(=O)N2CCC3(CC2)CC(=O)c2ccccc2O3)cc(OC)c1OC`, the values for the IC50 with MCF7, in the series with A2780 and in the series with HT-29 were 47.1 µM, 18.8 µM and 23.2 µM, respectively.

Regarding `O=C1CC2(CCN(C(=O)C34CC5CC(CC(C5)C3)C4)CC2)Oc2ccccc21`, the IC50 in the series on MCF7 stood at 23.9 µM; with A2780, 22.7 µM; in the series on HT-29, 8.46 µM.

For the molecule `CC(C)(C)OCC(=O)CN1CCC2(CC1)CC(=O)c1cc(C(=O)/C=C3\C(=O)Nc4ccc(Br)cc43)c(O)cc1O2`, in series [1], the IC50 came out at 56.3 µM.

Turning to `CC(C)(C)OCC(=O)CN1CCC2(CC1)CC(=O)c1cc(C(=O)/C=C3\C(=O)Nc4ccccc43)c(O)cc1O2`, in series [1], the IC50 is 6.85 µM.

For the molecule `CC(C)Oc1ccc2c(c1)OC1(CCN(c3ccc(S(N)(=O)=O)cc3[N+](=O)[O-])CC1)CC2=O`, the inhibition constant Ki on Carbonic anhydrase 9 was 0.0346 µM.

Take `CC(=O)N1CCC2(CC1)CC(=O)c1cc3c(cc1O2)CCC(C)(C)O3`: the IC50 in series [8] (read-out: IC50) came out at 5.32 µM. Moreover, in the series on Erythrocyte, the Activity is recorded as 23.07%.

As for `CC(=O)N1CCC2(CC1)CC(=O)c1c(ccc3c1CCC(C)(C)O3)O2`, the half-inhibitory concentration (IC50) in series [8] (read-out: IC50) was determined as 6.59 µM. The Activity in the series on Erythrocyte came to 56.1%.

Consider `CCOC(=O)N1CCC2(CC1)CC(=O)c1cc(C(=O)/C=C3\C(=O)Nc4ccccc43)c(O)cc1O2`, for which the IC50 in series [1] worked out at 1.74 µM.

For the molecule `Cc1c(C(=O)c2ccc(-c3ccccc3)cc2)oc2cc3c(cc12)C(=O)CC1(CCN(CC(=O)OC(C)(C)C)CC1)O3`, the IC50 stood at 63.92 mg/L in series [8] and 44.73 mg/L (≈ 79.1 µM) in series [9].

Regarding `CC(=O)N1CCC2(CC1)CC(=O)c1cc(C(=O)/C=C3\C(=O)Nc4ccc(Br)cc43)c(O)cc1O2`, the 50% inhibitory concentration (IC50) in series [1] was found to be 58.6 µM.

Turning to `O=C1O[C@H]([C@@H](O)CO)C(O)=C1O` [ASCORBIC ACID], the 50% inhibitory concentration (IC50) in series [8] (read-out: IC50) and in series [1] was 8.64 µM in each case.

On to `OC(CN1CCC2(CC1)CC(O)c1ccc3ccccc3c1O2)c1ccc(F)c(F)c1` (stereo unspecified), for which the EC50 (usually the concentration that produces a half-maximal response) was determined as 0.35 µM with Plasmodium falciparum and 19 µM in the series on HepG2. Also, the logP (commonly the decadic logarithm of the partition coefficient of the neutral form, usually between octanol and water) in series [10] was 3.85. Moreover, the solubility in series [11] and in series [12] was more than 0.042 mg/mL throughout.

For the molecule `CC(C)(C)n1cc2c(n1)C(=O)CC1(CCN(C(=O)c3ccc4[nH]ncc4c3)CC1)O2`, in series [13], the inhibition (usually the relative decrease from the control value, in per cent) was 75%. Moreover, the “inhibition (INH)” value in series [14] came out at 78%. Moreover, the ED50 – broadly, the dose at which the effect has come halfway, by size or by number of responders – in [15] came out at 1.6 mg/kg; in series [16], 2.6 mg/kg.

With `COc1ccc2c(c1)OC1(CCN(c3ccc(S(N)(=O)=O)cc3[N+](=O)[O-])CC1)CC2=O`, the Ki on Carbonic anhydrase 9 came out at 2.75 µM.

Turning to `Cc1ccc2c(c1)C(=O)CC1(CCN(c3ccc(S(N)(=O)=O)cc3[N+](=O)[O-])CC1)O2`, the Ki at Carbonic anhydrase 9 is 3.55 µM.

For `NS(=O)(=O)c1ccc(N2CCC3(CC2)CC(=O)c2cc(OCCO)ccc2O3)c([N+](=O)[O-])c1`, on Carbonic anhydrase 9, the Ki amounted to 3.75 µM.

As for `NS(=O)(=O)c1ccc(N2CCC3(CC2)CC(=O)c2ccc(O)cc2O3)c([N+](=O)[O-])c1`, the Ki at Carbonic anhydrase 9 turned out to be 4.41 µM.

Consider `CC(=O)N1CCC2(CC1)CC(=O)c1cc(C(=O)/C=C3\C(=O)Nc4ccccc43)c(O)cc1O2`, for which the IC50 in series [1] was 47.7 µM.

`NS(=O)(=O)c1ccc(N2CCC3(CC2)CC(=O)c2ccc(OCCO)cc2O3)c([N+](=O)[O-])c1`: the Ki at Carbonic anhydrase 9 was 0.0465 µM.

Consider `COc1ccc2c(c1)C(=O)CC1(CCN(c3ccc(S(N)(=O)=O)cc3[N+](=O)[O-])CC1)O2`, for which the Ki on Carbonic anhydrase 9 was found to be 1.56 µM.

Turning to `CC(C)Oc1ccc2c(c1)C(=O)CC1(CCN(c3ccc(S(N)(=O)=O)cc3[N+](=O)[O-])CC1)O2`, at Carbonic anhydrase 9, the Ki amounted to 3.3 µM.

For the molecule `O=C(/C=C/c1ccc2c(c1)C(=O)CC1(CCN(Cc3ccc(F)cc3)CC1)O2)NO`, the AUC(0-inf) – broadly, total exposure, with the tail of the curve extrapolated – in [2] (CD1, mouse) worked out at 1.49 µg·h/mL. For the same molecule, in [3], the half-life is 13 h. The clearance (in general, the volume of plasma or blood freed of the substance per unit of time) in [4] (CD-1, mouse) was 3.35 L/h/kg. This molecule came in with a Vd in series [5] of 5.9 L/kg. In series [6], the Cmax amounted to 1.83 µM. In addition, the exposure (AUC) in series [7] was 1.24 µg·h/mL.
